Source: patent US20130253179A1, “Functionalization Processes and Reactants Used in Such Processes Using an Isatoic Anhydride or a Derivative Thereof, Biological Molecules Thus Treated and Kits” (priority 2010, published 2013)

Test system: HIV WT transcript
Assay: NASBA amplification of functionalised, captured and eluted HIV transcripts
Format: biochemical
Protocol: In the preceding example 12, 4 μg of a WT HIV transcript (1083 nucleotides, internal production, bioMérieux batch 841470301, C=3.27E12 copies μl) was biotinylated with different concentrations of the compound (24) (0 mM, 15 mM, 30 mM, 120 mM, 180 mM, i.e. the experiments #1-7 of Table 6). This transcript was then captured on Merck MagPrep 25 Streptavidin magnetic particles, then, after rinsing, the particles were subjected to a 100 mM DTT treatment in PBS 1x pH 7 at 40° C. for one hour, in order to cleave the disulfide bond (SS) and elute the transcripts with —SH anthranilate groups, as shown in FIG. 16. We evaluated the ability of these transcripts to be amplified by the NASBA technology. This evaluation was performed as a comparison with an unfunctionalised “bare” HIV_WT transcript range.
The amplification is performed on a NucliSENS EasyQ instrument (bioMérieux, Lyon, France) and with a NucliSENS EasyQ HIV-1 V2.0 kit (bioMérieux, Lyon, France, ref. 285033, batch 09122106). The software used is NucliSENS EasyQ Director, and the protocol is QL1-60 1.0 (bioMérieux, Lyon, France).
After functionalisation with compound 24, capture and elution in 8 μL of 100 mM DTT, as described in example 12, the transcripts of experiments #2-5 from Table 7 were assayed on RNA 6000 NANO chip with the AGILENT bioanalyzer (Santa Clara, USA), and were diluted in the following concentrations: 1000 copies, 100 copies, 50 copies, 10 copies, 1 copy, 0 copies in 15 μl. An HIV IC transcript (internal control of the same amplified sequence as the WT (wild type) transcript, but detected by a molecular beacon carrying another fluorophore) diluted to 360 copies is added to the 15 μl volume, and will be present in all of the wells in which the amplifications occur. This transcript serves to monitor the correct operation of the amplification. The tests are carried out in triplicate.
Six Accuspheres ENZ II (NucliSENS EasyQ HIV-1 V2.0 kit, ref. 285033, bioMérieux, Lyon, France) are deposited into a 1.5 ml polypropylene tube. A volume of 270 μL of ENZdil H (NucliSENS EasyQ HIV-1 V2.0 kit, ref. 285033, bioMérieux, Lyon, France) is added onto the Accuspheres, and 15 minutes are allowed to pass, for them to dissolve completely. The twelve Accuspheres PRM H (NucliSENS EasyQ HIV-1 V2.0 kit, ref. 285033, bioMérieux, Lyon, France) are deposited into a 1.5 ml polypropylene tube 1080 μL of PRMdi l H (NucliSENS EasyQ HIV-1 V2.0 kit, ref. 285033, bioMérieux, Lyon, France) is added onto these Accuspheres and the mixture is immediately vortex stirred until the Accuspheres dissolve completely. After complete dissolution in the two tubes (mix ENZ II and mix PRM H), these mixtures are centrifuged with a benchtop centrifuge. […]

Cn1c(=O)oc(=O)c2cc(NC(=O)CCSSCCNC(=O)CCOCCOCCOCCOCCNC(=O)CCCCC3SCC4NC(=O)NC43)ccc21 (stereo not shown) [5Biot PEG4 SS IA Me 24]
Minimum number of copies detected (15 mM functionalisation reagent): 10 copies | Minimum number of copies detected (30 mM functionalisation reagent): 10 copies | Minimum number of copies detected (120 mM functionalisation reagent): 100 copies | Minimum number of copies detected (180 mM functionalisation reagent): 1000 copies
